# Results: patent US20240216410A1, “METHODS AND COMPOSITIONS FOR TREATING CANCER THERAPY-INDUCED NEUTROPENIC FEVER AND/OR GVHD” (BOARD OF REGENTS, THE UNIVERSITY OF TEXAS SYSTEM, priority 2021, published 2024)
# Assays:
# [1] = Meropenem concentrations in cecal contents after subcutaneous injection (LC-MS); type: in vivo, mice; details: 4, 8, 24, 48 and 96 hours
# Method: To further explore a potential causal relationship between meropenem and intestinal GVHD, the effects of meropenem on GVHD in a mouse model of allo-HSCT were examined. A method of administering meropenem to mice was first developed that would better mimic the effects of meropenem on the intestinal microbiome of patients, which is typically given every 8 hours intravenously. Previously, antibiotics were administered subcutaneously to mice (25), and meropenem concentrations were quantified in the cecal lumen of mice 4, 8, 24, 48 and 96 hours after subcutaneous injection. […] Next, drinking water was evaluated as a means of continuously administering meropenem to mice, using bacterial density quantified by 16S ribosomal RNA (16S rRNA) gene quantitative PCR (qPCR) to gauge reductions of the intestinal microbiota.
# Pharmacokinetics of meropenem by Triple Quadruple liquid chromatography-mass spectrometry (LC-MS). C57BL/6 mice were treated with 10 mg of meropenem by subcutaneously injection. Cecal contents were collected prior to, 4, 8, 24, 48, and 96 hours after meropenem injection. To determine the relative abundance of meropenem in mouse cecum samples, extracts were prepared and analyzed with a THERMO […]™ TSQ […]™ triple quadruple mass spectrometer coupled with a DIONEX™ ULTIMATE™ 3000 HPLC system. […]
# [2] = test system: murine BT GH2 β-galactosidase, GH33 sialidase, GH29 α-L-fucosidase; assay: RNA sequencing of stool from allo-HSCT mice: BT PUL expression; type: in vivo, Bacteroides thetaiotaomicron; details: day 18, allo-HSCT mice with vs without meropenem
# Method: Thus, in some cases, meropenem treatment during GVHD may lead to alterations in the behavior of BT. To evaluate this further, RNA sequencing of stool samples from allo-HSCT mice without and with meropenem treatment was performed. Also examined was the genome of mouse-derived BT isolate MDA-JAX BT001 (FIG. 23), and open reading frames (ORF) were identified, which were then assigned to polysaccharide utilization loci (PUL) using the Polysaccharide-Utilization Loci DataBase (PULDB) (41).
# RNA sequencing and analysis. Approximately 30 mg of stool was freshly collected in 700 μL of ice cold QIAZOL® containing 200 μL of 0.1 mm diameter Zirconia Silica beads (11079101z, BioSpec). Samples were bead beaten twice for 2 min with a 30 second interval recovery. Samples were then centrifuged at 12,000 g for 1 min and the supernatant was collected for RNA isolation using the RNeasy mini kit (74104, QIAGEN®). […] RNA quantity and quality was determined using an Agilent 4200 TapeStation system (Agilent). […] The cDNA libraries were sequenced on the […]® MISEQ™ system to produce 1×300 bp single-end reads, resulting in ˜1 million reads per sample. […] The total reads of mouse stool samples were 950923±113406 (mean±standard deviation). […] Aligned mRNA expression changes were calculated using the Mann-Whitney U test in R software version 3.6.0 via RStudio version 1.2.1335. […]
structure (smiles),measurement,setting,value
C[C@@H](O)[C@H]1C(=O)N2C(C(=O)O)=C(S[C@@H]3CN[C@H](C(=O)N(C)C)C3)[C@H](C)[C@H]12 [meropenem],meropenem concentrations in the cecum,[1],"increase in meropenem concentrations in the cecum at 4 hours after injection, which rapidly declined thereafter"
same,"expression in murine BT of GH2 β-galactosidase, GH33 sialidase and GH29 α-L-fucosidase",[2],upregulated expression
same,survival after allo-HSCT,meropenem in drinking water days 3 to 15 vs control allo-HSCT mice,significantly worsened survival
same,GVHD histological scores in the colon,"mouse, in vivo",significantly higher
same,GVHD histology in the small intestine and liver,"mouse, in vivo",not substantially different
same,epithelial damage in the colon (H&E),"mouse, in vivo",severe epithelial damage in the colon
